Laboratory results published in patent US20260206745A1, “DOUBLE ENCAPSULATED NANOCOMPOSITE FOR STAGED DELIVERY OF ACTIVE INGREDIENT(S), AND A METHOD OF PRODUCING THEREOF” (COUNCIL OF SCIENTIFIC AND INDUSTRIAL RESEARCH, priority 2022, published 2026).

Columns and labels:
[1] = In vitro atrazine release from nanoformulations (dialysis); assay type: physicochemical; conditions: after 94 hours, DI water, dialysis 12 kDa
Protocol: B) In vitro atrazine release from nanoformulations: A dialysis tubing (MWCO 12 kDa, Sigma-Aldrich, St. Louis, USA) was taken with nfATZ (2 mg), where the total amount of ATZ loaded was 200 μg. In another dialysis tubing, 200 μg of ATZ (bulk form) dispersed in 2 ml of distilled water (DW) with 0.1% w/v sodium azide was taken. These dialysis bags were kept in 18 mL of DW containing sodium azide, and the release studies were done at 37° C. in a shaker bath (SW23, Julabo, Seelbach, Germany) at 50 rpm. At regular intervals, 1 mL of DW was withdrawn and replaced with 1 mL of fresh DW to maintain the sink conditions. The withdrawn DW was analyzed for the amount of ATZ released using a UV-visible spectrophotometer at λmax of 222 nm. […] After 94 hours of release studies, 60% of ATZ was released in the case of plain ATZ, while 22% of ATZ was released from the nfATZ. […] From this observation, it is noted that the another […] of release from the nano-formulation can extend up to 30 days. From these studies, inventors concluded that the nanoformulations is the best choice to control the weeds for an extended period, which can be manipulated as desired by changing concentration of EC and ATZ.

[2] = Thermal gravimetric analysis (TGA); assay type: physicochemical; conditions: TGA under N2, 10° C. min^−1
Source text: A) Characterization: The morphology and size distribution of the nf and nfATZ were observed using a field emission scanning electron microscope (FE-SEM; Nova NanoSEM 450, FEI, Hillsboro, USA) and a high-resolution transmission electron microscope (HR-TEM; Tecnai TF20, 200 kV FEG, FEI, Hillsboro, USA). The ζ-potential and particle size distribution of nf and nfATZ were estimated using a PALS zeta potential analyzer (Brookhaven Instruments, Holtsville, USA). The material structural analysis was determined using a Fourier transform infrared spectrometer (FTIR; PerkinElmer, Waltham, USA) and X-ray diffractometer (XRD; PANalytical X'Pert PRO, Malvern Panalytical, Malvern, UK). The interaction between ATZ and EC was analyzed using differential scanning calorimetry (DSC). […]
The nf depicts a shift in Tg from 121° C. to 131º° C. […] The nfATZ recorded a Tg at 125° C.; a shift in the Tg from 131° C. […] Two-stage decomposition temperatures were recorded for pristine EC, 50-95° C., due to loss of moisture (weight loss, 2.9%) and 150-380° C. due to fragmentation of chemical bonds (weight loss, 85%). […] Further, it is observed that nfATZ recorded a broad first derivative peak for the weight loss, which may be due to the merging of two first derivative peaks, one for ATZ and the other for EC.

Compound: CCNc1nc(Cl)nc(NC(C)C)n1 [plain ATZ, Atrazine]
- ATZ released [1]: 60%
- maximum degradation temperature [2]: 230 °C
